Results on 21 compounds are retold here after US20240383875A1, “Benzimidazole Pyridine Derivatives” (Hoffmann-La Roche Inc., priority 2022, published 2024).

By IC50 is commonly meant the midpoint of a concentration-inhibition curve.

What all share (assay type): biochemical
The target of one assay is SIK3 (Homo sapiens, UniProt Q9Y2K2). The assay is described as follows: Enzymatic activity assay SIK3, RapidFire mass spectrometry (phosphorylation of CHK-peptide). The following applies: RapidFire MS, inhibition of SIK3; read-out: SIK3 RF IC50. An outline of the steps:
(§1)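 Compounds (12-point, 3-fold, generally 30 μM to 170 pM) were pre-incubated 30 min at ambient temperature with SIK1 (5 nM), SIK2 (0.5 nM) or SIK3 (1.5 nM) in HEPES pH 7.0/magnesium acetate buffer. CHK-peptide (10 μM solution) and ATP (100 μM solution) were then added for 45 min before formic acid quench.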

Another assay addresses SIK2 (Homo sapiens, UniProt Q9H0K1). The assay is described as follows: Enzymatic activity assay SIK2, RapidFire mass spectrometry (phosphorylation of CHK-peptide). The following applies: RapidFire MS, inhibition of SIK2; read-out: SIK2 RF IC50. An outline of the steps:
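SIK2 (0.5 nM) in pH 7.0 HEPES buffer with 10 mM Mg acetate phosphorylates CHK-peptide (10 μM solution) with 100 μM ATP solution, 45 min ambient, then formic acid quench.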

The next assay addresses SIK1 (Homo sapiens, UniProt P57059). The assay is described as follows: Enzymatic activity assay SIK1, RapidFire mass spectrometry (phosphorylation of CHK-peptide). The conditions noted are these: RapidFire MS, inhibition of SIK1; read-out: SIK1 RF IC50. An outline of the steps: as §1

SIK2, sequence (Q9H0K1 whole entry): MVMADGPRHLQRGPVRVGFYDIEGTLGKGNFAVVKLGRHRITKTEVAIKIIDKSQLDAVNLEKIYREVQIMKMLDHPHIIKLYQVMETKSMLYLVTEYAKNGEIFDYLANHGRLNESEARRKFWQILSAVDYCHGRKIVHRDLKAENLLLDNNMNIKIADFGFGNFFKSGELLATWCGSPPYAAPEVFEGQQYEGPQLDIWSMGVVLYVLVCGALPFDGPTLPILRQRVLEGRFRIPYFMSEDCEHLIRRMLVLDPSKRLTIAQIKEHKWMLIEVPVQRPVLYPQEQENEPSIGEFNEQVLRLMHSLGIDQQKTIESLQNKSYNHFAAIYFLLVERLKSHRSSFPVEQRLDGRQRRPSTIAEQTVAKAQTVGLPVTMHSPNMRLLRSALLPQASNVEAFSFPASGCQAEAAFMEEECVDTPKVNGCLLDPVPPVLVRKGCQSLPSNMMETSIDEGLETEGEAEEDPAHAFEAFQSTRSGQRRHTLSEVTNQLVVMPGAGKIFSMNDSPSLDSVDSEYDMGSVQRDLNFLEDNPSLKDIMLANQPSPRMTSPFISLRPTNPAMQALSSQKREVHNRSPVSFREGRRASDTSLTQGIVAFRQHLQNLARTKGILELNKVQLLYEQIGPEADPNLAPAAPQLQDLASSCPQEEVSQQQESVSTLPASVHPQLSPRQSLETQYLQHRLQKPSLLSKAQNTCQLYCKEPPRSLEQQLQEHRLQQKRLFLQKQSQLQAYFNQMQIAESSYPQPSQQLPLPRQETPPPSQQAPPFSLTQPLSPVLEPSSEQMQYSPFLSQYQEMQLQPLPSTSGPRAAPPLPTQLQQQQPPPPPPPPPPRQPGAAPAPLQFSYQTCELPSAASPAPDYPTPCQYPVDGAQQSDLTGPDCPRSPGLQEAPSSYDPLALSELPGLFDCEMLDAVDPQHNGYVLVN
SIK3, sequence (Q9Y2K2 whole entry): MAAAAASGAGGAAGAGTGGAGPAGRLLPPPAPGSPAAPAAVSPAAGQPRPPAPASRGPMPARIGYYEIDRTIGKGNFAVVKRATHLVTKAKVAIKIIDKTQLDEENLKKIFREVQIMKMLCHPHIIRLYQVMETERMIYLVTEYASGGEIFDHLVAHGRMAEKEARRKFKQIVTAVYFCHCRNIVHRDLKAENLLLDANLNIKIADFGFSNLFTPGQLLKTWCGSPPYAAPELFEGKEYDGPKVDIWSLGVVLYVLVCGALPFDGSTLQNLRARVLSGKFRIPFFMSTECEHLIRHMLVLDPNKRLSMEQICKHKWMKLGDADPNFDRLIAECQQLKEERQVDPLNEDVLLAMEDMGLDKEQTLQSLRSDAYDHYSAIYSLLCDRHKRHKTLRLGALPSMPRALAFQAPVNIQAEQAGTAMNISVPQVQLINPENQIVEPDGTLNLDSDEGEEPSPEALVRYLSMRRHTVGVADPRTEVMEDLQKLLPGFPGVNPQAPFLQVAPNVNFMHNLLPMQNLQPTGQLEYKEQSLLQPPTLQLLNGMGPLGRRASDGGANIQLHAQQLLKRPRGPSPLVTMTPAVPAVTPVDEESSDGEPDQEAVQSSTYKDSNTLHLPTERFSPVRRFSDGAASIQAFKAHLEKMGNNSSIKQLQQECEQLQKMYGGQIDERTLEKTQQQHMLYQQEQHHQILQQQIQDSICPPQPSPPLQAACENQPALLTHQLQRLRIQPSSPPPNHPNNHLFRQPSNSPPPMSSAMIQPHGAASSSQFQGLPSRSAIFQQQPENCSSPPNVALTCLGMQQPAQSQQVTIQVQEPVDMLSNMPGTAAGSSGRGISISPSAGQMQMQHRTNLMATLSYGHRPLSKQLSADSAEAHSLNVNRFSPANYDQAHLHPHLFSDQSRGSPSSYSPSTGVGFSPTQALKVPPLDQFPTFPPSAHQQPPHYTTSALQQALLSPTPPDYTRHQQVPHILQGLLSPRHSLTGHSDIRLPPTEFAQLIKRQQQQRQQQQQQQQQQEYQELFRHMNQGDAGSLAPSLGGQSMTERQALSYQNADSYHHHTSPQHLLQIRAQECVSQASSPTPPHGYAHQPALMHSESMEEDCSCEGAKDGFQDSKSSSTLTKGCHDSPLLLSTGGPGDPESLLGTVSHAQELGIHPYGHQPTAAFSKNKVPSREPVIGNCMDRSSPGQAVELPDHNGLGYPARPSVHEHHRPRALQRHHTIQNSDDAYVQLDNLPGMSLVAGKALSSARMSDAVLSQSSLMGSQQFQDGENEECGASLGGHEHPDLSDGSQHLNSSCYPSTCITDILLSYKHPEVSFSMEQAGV
SIK1, sequence (P57059 whole entry): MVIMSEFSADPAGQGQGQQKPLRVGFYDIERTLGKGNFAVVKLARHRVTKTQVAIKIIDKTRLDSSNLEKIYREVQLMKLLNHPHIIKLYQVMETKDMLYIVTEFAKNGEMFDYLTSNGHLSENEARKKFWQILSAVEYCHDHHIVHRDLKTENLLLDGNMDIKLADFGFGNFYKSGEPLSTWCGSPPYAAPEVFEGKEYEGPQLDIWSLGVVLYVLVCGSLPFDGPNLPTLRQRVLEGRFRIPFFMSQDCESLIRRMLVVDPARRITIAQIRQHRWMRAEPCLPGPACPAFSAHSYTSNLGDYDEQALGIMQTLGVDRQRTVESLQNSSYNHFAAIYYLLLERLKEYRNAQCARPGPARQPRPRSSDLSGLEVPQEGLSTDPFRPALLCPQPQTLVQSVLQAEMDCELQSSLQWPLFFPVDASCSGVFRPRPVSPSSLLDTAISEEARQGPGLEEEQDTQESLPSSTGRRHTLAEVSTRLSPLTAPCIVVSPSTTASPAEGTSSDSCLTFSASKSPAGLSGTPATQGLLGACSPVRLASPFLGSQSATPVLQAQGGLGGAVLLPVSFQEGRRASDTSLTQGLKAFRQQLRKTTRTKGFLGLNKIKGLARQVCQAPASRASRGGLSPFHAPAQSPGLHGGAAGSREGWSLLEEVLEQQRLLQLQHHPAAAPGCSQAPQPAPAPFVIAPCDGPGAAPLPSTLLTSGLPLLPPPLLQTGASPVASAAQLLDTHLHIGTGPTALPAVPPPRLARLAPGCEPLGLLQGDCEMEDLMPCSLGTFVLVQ

On to `Cc1ccc(Nc2ccc3c(c2)ncn3-c2ccc(C(C)O)c(-n3nc(OC(F)F)cc3C)n2)nn1` (stereo not drawn) [Example 290, 1-[2-[3-(difluoromethoxy)-5-methyl-pyrazol-1-yl]-6-[5-[(6-methylpyridazin-3-yl)amino]benzimidazol-1-yl]-3-pyridyl]ethanol], for which the values for the IC50 on SIK3, on SIK2 and on SIK1 were 0.5 nM, 0.6 nM and 54 nM, respectively.
For `Cc1ccc(Nc2ccc3ncn(-c4ccc(C(C)O)c(-n5nc(C#N)c6c5CCN(C)C6)n4)c3c2)nn1` (stereo not drawn) [Example 291, 1-[3-(1-hydroxyethyl)-6-[6-[(6-methylpyridazin-3-yl)amino]benzimidazol-1-yl]-2-pyridyl]-5-methyl-6,7-dihydro-4~{H}-pyrazolo[4,3-c]pyridine-3-carbonitrile] the same measures were 11.9 nM, 1.2 nM and 1 nM.
For `Cc1cc(S(C)(=O)=O)c(Nc2ccc3c(c2)ncn3-c2ccc(C(C)O)c(-n3nc(C#N)cc3C)n2)nn1` (stereo not drawn) [Example 292, 1-[3-(1-hydroxyethyl)-6-[5-[(6-methyl-4-methylsulfonyl-pyridazin-3-yl)amino]benzimidazol-1-yl]-2-pyridyl]-5-methyl-pyrazole-3-carbonitrile] the same measures were 24.2 nM, 34.2 nM and 617 nM.
For the compound `COCCOCCOCCOCCOCCOCCOCCOc1ccc(Nc2ccc3c(c2)ncn3-c2ccc(C(C)O)c(-n3nc(C#N)cc3C)n2)nn1` (stereo not drawn) [Example 293, 1-[3-(1-hydroxyethyl)-6-[5-[[6-[2-[2-[2-[2-[2-[2-(2-methoxyethoxy)ethoxy]ethoxy]ethoxy]ethoxy]ethoxy]ethoxy]pyridazin-3-yl]amino]benzimidazol-1-yl]-2-pyridyl]-5-methyl-pyrazole-3-carbonitrile], the IC50 is 2.8 nM at SIK3, 6 nM at SIK2 and 132 nM at SIK1.
For `Cc1ccc(Nc2cc3c(cc2OCCN2CCOCC2)ncn3-c2ccc(C(C)O)c(-n3nc(C#N)cc3C)n2)cn1` (stereo not drawn) [Example 294, 1-[3-(1-hydroxyethyl)-6-[6-[(6-methyl-3-pyridyl)amino]-5-(2-morpholinoethoxy)benzimidazol-1-yl]-2-pyridyl]-5-methyl-pyrazole-3-carbonitrile] the same measures were 3 nM, 0.3 nM and 2 nM.
For `Cc1cc(C#N)nn1-c1nc(-n2cnc3ccc(N4CCCC45COC5)cc32)ccc1C(C)O` (stereo not drawn) [Example 295, 1-[3-(1-hydroxyethyl)-6-[6-(2-oxa-5-azaspiro[3.4]octan-5-yl)benzimidazol-1-yl]-2-pyridyl]-5-methyl-pyrazole-3-carbonitrile] the same measures were 235 nM, 19.6 nM and 10 nM.
For `Cc1cc(C#N)nn1-c1nc(-n2cnc3cc(N4CCCC45COC5)ccc32)ccc1C(C)O` (stereo not drawn) [Example 296, 1-[3-(1-hydroxyethyl)-6-[5-(2-oxa-5-azaspiro[3.4]octan-5-l)benzimidazol-1-yl]-2-pyridyl]-5-methyl-pyrazole-3-carbonitrile] the same measures were 90 nM, 77 nM and 137 nM.
On to `Cc1ccc(Nc2cc3ncn(-c4ccc(C(C)O)c(-n5nc(C#N)cc5C)n4)c3cc2OCCN2CCOCC2)cn1` (stereo not drawn) [Example 297, 1-[3-(1-hydroxyethyl)-6-[5-[(6-methyl-3-pyridyl)amino]-6-(2-morpholinoethoxy)benzimidazol-1-yl]-2-pyridyl]-5-methyl-pyrazole-3-carbonitrile], for which the IC50 was determined as 14.8 nM on SIK3, 6.2 nM on SIK2 and 10 nM at SIK1.
For `Cc1ccc(Nc2ccc3c(c2)ncn3-c2ccc(C(C)O)c(N3CCC(C(F)F)C3)n2)nn1` (stereo not drawn) [Example 298, 1-[2-[3-(difluoromethyl)pyrrolidin-1-yl]-6-[5-[(6-methylpyridazin-3-yl)amino]benzimidazol-1-yl]-3-pyridyl]ethanol] the same measures were 3 nM, 27.4 nM and 1510 nM.
For `Cc1ccc(Nc2ccc3c(c2)ncn3-c2ccc(C(C)O)c(N3CCC4(C3)CC4(F)F)n2)nn1` (stereo not drawn) [Example 299, 1-[2-(2,2-difluoro-5-azaspiro[2.4]heptan-5-yl)-6-[5-[(6-methylpyridazin-3-yl)amino]benzimidazol-1-yl]-3-pyridyl]ethanol] the same measures were 0.7 nM, 2.4 nM and 273 nM.
Take `Cc1ccc(Nc2cc3ncn(-c4ccc([C@H](C)O)c(-n5nc(C(F)F)cc5C)n4)c3cc2F)nn1` [Example 301, (1S)-1-[2-[3-(difluoromethyl)-5-methyl-pyrazol-1-yl]-6-[6-fluoro-5-[(6-methylpyridazin-3-yl)amino]benzimidazol-1-yl]-3-pyridyl]ethanol]: the 50% inhibitory concentration (IC50) on SIK3 turned out to be 2 nM; at SIK2, 3.5 nM; at SIK1, 664 nM.
For `Cc1ccc(Nc2cc3ncn(-c4ccc(C(C)O)c(-c5cn(CC(F)(F)F)nc5C)n4)c3cc2F)nn1` (stereo not drawn) [Example 302, 1-[6-[6-fluoro-5-[(6-methylpyridazin-3-yl)amino]benzimidazol-1-yl]-2-[3-methyl-1-(2,2,2-trifluoroethyl)pyrazol-4-yl]-3-pyridyl]ethanol] the same measures were 1.1 nM, 0.7 nM and 409 nM.
For `Cc1ccc(Nc2ccc3c(c2)ncn3-c2ccc(C(C)O)c(-n3nc(C(F)F)cc3C#N)n2)nn1` (stereo not drawn) [Example 303, 5-(difluoromethyl)-2-[3-(1-hydroxyethyl)-6-[5-[(6-methylpyridazin-3-yl)amino]benzimidazol-1-yl]-2-pyridyl]pyrazole-3-carbonitrile] the same measures were 0.4 nM, 0.4 nM and 30 nM.
For `Cc1cc(C#N)nn1-c1nc(-n2cnc3cc(Nc4ccc(C5CCCN5C5COC5)nn4)ccc32)ccc1C(C)O` (stereo not drawn) [Example 304, 1-[3-(1-hydroxyethyl)-6-[5-[[6-[1-(oxetan-3-yl)pyrrolidin-2-yl]pyridazin-3-yl]amino]benzimidazol-1-yl]-2-pyridyl]-5-methyl-pyrazole-3-carbonitrile] the same measures were 37.2 nM, 95.4 nM and 273 nM.
For the compound `Cc1ccc(Nc2ccc3c(c2)ncn3-c2ccc(C(C)O)c(-n3nc(C#N)c4c3C(F)(F)CNC4)n2)nn1` (stereo not drawn) [Example 305, 7,7-difluoro-1-[3-(1-hydroxyethyl)-6-[5-[(6-methylpyridazin-3-yl)amino]benzimidazol-1-yl]-2-pyridyl]-5,6-dihydro-4~{H}-pyrazolo[4,3-c]pyridine-3-carbonitrile], the IC50 amounted to 2.1 nM at SIK3, 1.7 nM on SIK2 and 155 nM at SIK1.
`Cc1ccc(Nc2ccc3c(c2)ncn3-c2ccc(C(C)O)c(-n3nc(C#N)cc3C(F)F)n2)nn1` (stereo not drawn) [Example 306, 5-(difluoromethyl)-1-[3-(1-hydroxyethyl)-6-[5-[(6-methylpyridazin-3-yl)amino]benzimidazol-1-yl]-2-pyridyl]pyrazole-3-carbonitrile]: the half-maximal inhibitory concentration (IC50) came to 0.7 nM on SIK3, 1.6 nM at SIK2 and 208 nM at SIK1.
For `Cc1cc(C(F)F)nn1-c1nc(-n2cnc3cc(Nc4cccnn4)c(F)cc32)ccc1[C@H](C)O` [Example 307, (1S)-1-[2-[3-(difluoromethyl)-5-methyl-pyrazol-1-yl]-6-[6-fluoro-5-(pyridazin-3-ylamino)benzimidazol-1-yl]-3-pyridyl]ethanol] the same measures were 2.8 nM, 7.8 nM and 679 nM.
For `Cc1ccc(Nc2ccc3c(c2)ncn3-c2ccc(C(C)O)c(-c3nn(CC(F)(F)F)nc3C)n2)nn1` (stereo not drawn) [Example 308, 1-[6-[5-[(6-methylpyridazin-3-yl)amino]benzimidazol-1-yl]-2-[5-methyl-2-(2,2,2-trifluoroethyl)triazol-4-yl]-3-pyridyl]ethanol] the same measures were 0.4 nM, 0.4 nM and 58 nM.
Regarding `Cc1ccc(Nc2ccc3c(c2)ncn3-c2ccc(C(C)O)c(-n3nc(C#N)c(C)c3C)n2)nn1` (stereo not drawn) [Example 309, 1-[3-(1-hydroxyethyl)-6-[5-[(6-methylpyridazin-3-yl)amino]benzimidazol-1-yl]-2-pyridyl]-4,5-dimethyl-pyrazole-3-carbonitrile], the 50% inhibitory concentration (IC50) was determined as 0.4 nM on SIK3, 0.3 nM at SIK2 and 27 nM at SIK1.
With `Cc1cc(C#N)nn1-c1nc(-n2cnc3cc(Nc4nncc5c4OCCN5C)ccc32)ccc1C(C)O` (stereo not drawn) [Example 310, 1-[3-(1-hydroxyethyl)-6-[5-[(4-methyl-2,3-dihydropyridazino[4,5-b][1,4]oxazin-8-yl)amino]benzimidazol-1-yl]-2-pyridyl]-5-methyl-pyrazole-3-carbonitrile], the IC50 on SIK3 was 0.5 nM; at SIK2 it was 1.1 nM; at SIK1 it was 93 nM.
For `Cc1ccc(Nc2ccc3c(c2)ncn3-c2ccc(C(C)O)c(-c3nnn(CC(F)(F)F)c3C)n2)nn1` (stereo not drawn) [Example 311, 1-[6-[5-[(6-methylpyridazin-3-yl)amino]benzimidazol-1-yl]-2-[5-methyl-1-(2,2,2-trifluoroethyl)triazol-4-yl]-3-pyridyl]ethanol], the half-maximal inhibitory concentration (IC50) was determined as 0.3 nM at SIK3, 0.3 nM at SIK2 and 17 nM on SIK1.
